The values that follow are results of earlier work, collected in US20120053222A1, “Novel Metabolic Disease Therapy” (priority 2009, published 2012).

This data set has as its system ob/ob mice. As to conditions: injection.

Take exendin 4: the liver steatosis result is reported as “diminishes liver steatosis”.
